Results taken from patent publication US9573911B2, “Diphosphate mimetics and uses thereof” (President and Fellows of Harvard College, priority 2011, dated 2017).

Experiments:
Format in all cases: biochemical
OGT = target: T1, OGT (Homo sapiens, UniProt O15294); test: Time-dependent inactivation of OGT with BZX compounds
T1 construct: hOGT4.5 construct (spanning residues 313-1031 based on the numbering of the full length human protein); made in house
T1 sequence (O15294 313-1031 isoform O15294-3): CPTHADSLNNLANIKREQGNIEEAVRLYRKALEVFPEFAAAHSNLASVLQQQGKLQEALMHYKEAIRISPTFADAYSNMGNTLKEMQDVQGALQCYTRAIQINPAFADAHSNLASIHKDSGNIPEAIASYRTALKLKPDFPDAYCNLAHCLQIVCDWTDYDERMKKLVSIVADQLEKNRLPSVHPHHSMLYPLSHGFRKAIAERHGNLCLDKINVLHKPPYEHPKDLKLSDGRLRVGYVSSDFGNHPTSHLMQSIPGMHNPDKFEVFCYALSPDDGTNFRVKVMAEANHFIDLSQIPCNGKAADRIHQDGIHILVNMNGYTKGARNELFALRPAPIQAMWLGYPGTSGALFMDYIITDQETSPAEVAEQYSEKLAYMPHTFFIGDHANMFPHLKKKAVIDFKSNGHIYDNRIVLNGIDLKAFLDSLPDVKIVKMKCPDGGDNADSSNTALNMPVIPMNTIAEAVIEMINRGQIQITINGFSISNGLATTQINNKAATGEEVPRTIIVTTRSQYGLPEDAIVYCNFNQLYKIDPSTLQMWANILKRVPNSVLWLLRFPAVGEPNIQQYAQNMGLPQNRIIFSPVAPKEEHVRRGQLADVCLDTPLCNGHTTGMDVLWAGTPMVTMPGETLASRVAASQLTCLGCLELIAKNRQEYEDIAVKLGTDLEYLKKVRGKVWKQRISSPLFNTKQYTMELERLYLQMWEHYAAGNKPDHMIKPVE
From the text: Compound (1) was identified in a high-throughput screen of 65,000 compounds (FIG. 1). See, e.g., Gross et al., J. Am. Chem. Soc. (2005) 127:14588-14589. It contains a dicarbamate moiety that links two aromatic groups. This compound features a conjugated chemical structure and both carbamate carbonyls are potentially reactive. See, e.g., Alexander et al., Chem. Biol. (2005) 12:1179-1187. […] A small panel of related compounds was made from commercially available building blocks in order to identify structural features that might improve potency. Time-dependent inactivation studies were carried out in which OGT was preincubated with a three-fold excess of each compound for 5 min, and the mixture was then diluted 100-fold into buffer containing UDP-^14C-GlcNAc and the well-characterized peptide substrate, CKII. See, e.g., Kreppel et al., J. Biol. Chem. (1999) 274:32015-32022). Enzyme activity was measured using a previously developed peptide capture assay. See, e.g., Gross et al., J. Am. Chem. Soc. (2005) 127:14588-14589.
Each BZX compound (7.5 μM) was preincubated with 5 μM OGT in reaction buffer (125 mM NaCl, 1 mM EDTA, 20 mM potassium phosphate, pH 7.4, and 500 μM tris(hydroxypropyl)phosphine (THP)) at room temperature for different amount of time, then diluted 100-fold, mixed with substrates (6 μM UDP-^14C-GlcNAc and 500 μM CKII peptide (KKKYPGGSTPVSSANMM)) and allowed to react for another 2 h. Enzyme activity was tested with the peptide capture assay as previously reported. See, e.g., Gross et al., J. Am. Chem. Soc. (2005) 127:14588-14589. The final volume of each reaction was 20 μl, and the experiments were conducted in triplicate. The activities of OGT mutants were also tested in triplicate as previously reported. See, e.g., Gross supra.

NEK6 = target: T2, NEK6 (Homo sapiens, UniProt Q9HC98); test: Kinase profiling, Invitrogen Z'-LYTE; conditions: Table 2
T2 construct: purchased Invitrogen
T2 sequence (Q9HC98 whole entry): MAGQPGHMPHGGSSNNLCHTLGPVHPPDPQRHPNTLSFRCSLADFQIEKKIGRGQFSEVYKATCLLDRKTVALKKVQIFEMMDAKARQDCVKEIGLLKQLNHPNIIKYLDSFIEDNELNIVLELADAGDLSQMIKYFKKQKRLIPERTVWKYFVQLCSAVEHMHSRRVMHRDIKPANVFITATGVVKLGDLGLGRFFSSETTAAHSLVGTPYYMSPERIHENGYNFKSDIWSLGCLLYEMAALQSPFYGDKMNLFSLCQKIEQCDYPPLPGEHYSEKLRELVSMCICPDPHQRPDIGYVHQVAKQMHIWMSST
Experimental: (§1) Kinase profiling was conducted using Invitrogen Z'-LYTE screening protocol and assay conditions found at www.invitrogen.com. Compound (2) inhibited PLK1 completely at 5 μM.

GRK4 = target: T3, GRK4 (Homo sapiens, UniProt P32298); test: Kinase profiling, Invitrogen Z'-LYTE; conditions: Table 2
T3 construct: purchased Invitrogen
T3 sequence (P32298 whole entry): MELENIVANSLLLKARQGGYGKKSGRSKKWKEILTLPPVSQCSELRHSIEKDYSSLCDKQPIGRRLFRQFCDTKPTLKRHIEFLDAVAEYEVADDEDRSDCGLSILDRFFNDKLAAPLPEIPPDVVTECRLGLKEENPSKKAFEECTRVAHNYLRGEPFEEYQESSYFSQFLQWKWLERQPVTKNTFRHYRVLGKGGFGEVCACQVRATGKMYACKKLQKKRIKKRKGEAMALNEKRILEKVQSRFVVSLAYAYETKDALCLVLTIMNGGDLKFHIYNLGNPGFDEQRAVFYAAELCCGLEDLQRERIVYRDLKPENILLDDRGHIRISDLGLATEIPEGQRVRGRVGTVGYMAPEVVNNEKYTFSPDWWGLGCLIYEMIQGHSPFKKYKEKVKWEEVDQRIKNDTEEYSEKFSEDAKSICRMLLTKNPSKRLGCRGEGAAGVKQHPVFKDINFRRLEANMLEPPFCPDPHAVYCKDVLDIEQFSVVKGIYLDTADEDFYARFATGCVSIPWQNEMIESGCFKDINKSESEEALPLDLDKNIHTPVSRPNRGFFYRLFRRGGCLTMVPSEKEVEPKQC
Experimental: as §1

PHKG2 = target: T4, PHKG2 (Homo sapiens, UniProt P15735); test: Kinase profiling, Invitrogen Z'-LYTE; conditions: Table 2
T4 construct: purchased Invitrogen
T4 sequence (P15735 1-406): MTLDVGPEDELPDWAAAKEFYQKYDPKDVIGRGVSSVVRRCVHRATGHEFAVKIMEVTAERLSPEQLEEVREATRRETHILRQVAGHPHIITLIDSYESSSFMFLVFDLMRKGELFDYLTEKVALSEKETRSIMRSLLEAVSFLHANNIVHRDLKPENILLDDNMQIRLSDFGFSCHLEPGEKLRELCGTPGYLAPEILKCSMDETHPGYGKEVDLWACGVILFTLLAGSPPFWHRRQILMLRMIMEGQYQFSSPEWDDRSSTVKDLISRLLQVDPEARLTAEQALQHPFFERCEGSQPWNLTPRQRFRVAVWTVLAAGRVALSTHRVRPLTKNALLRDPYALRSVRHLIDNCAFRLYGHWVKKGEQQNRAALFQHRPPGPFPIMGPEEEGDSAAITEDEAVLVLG
Experimental: as §1

PRKX = target: T5, PRKX (Homo sapiens, UniProt P51817); test: Kinase profiling, Invitrogen Z'-LYTE; conditions: Table 2
T5 construct: purchased Invitrogen
T5 sequence (P51817 1-358): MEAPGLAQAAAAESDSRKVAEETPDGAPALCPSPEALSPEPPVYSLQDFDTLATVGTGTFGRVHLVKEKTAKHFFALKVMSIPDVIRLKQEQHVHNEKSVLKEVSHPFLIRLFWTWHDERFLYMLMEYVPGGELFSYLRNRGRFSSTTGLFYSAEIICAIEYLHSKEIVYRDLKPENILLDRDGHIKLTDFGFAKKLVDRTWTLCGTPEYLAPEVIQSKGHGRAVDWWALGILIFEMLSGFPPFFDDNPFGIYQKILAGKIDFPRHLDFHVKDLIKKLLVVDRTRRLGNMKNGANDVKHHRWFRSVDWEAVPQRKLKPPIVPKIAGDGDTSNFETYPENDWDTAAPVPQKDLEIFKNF
Experimental: as §1

SRPK2 = target: T6, SRPK2 (Homo sapiens, UniProt P78362); test: Kinase profiling, Invitrogen Z'-LYTE; conditions: Table 2
T6 construct: purchased Invitrogen
T6 sequence (P78362 whole entry): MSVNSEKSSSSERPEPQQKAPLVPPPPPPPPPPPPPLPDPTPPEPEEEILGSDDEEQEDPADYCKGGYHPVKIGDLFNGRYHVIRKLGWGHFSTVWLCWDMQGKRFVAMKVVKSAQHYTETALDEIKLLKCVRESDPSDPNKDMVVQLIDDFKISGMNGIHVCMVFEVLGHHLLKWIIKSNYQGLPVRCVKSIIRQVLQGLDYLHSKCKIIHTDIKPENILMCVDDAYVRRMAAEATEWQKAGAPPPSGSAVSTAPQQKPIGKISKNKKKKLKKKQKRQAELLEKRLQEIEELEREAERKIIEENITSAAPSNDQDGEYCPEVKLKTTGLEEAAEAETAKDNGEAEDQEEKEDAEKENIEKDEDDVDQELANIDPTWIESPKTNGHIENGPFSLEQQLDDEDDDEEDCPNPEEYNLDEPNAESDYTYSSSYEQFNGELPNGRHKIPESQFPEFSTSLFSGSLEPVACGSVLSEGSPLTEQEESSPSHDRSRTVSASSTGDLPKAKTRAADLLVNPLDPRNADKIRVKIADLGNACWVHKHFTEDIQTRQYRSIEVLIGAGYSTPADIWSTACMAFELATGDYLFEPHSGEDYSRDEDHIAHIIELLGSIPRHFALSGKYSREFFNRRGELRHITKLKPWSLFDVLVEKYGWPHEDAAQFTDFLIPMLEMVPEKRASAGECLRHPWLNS
Experimental: as §1

HIPK2 = target: T7, HIPK2 (Homo sapiens, UniProt Q9H2X6); test: Kinase profiling, Invitrogen Z'-LYTE; conditions: Table 2
T7 construct: purchased Invitrogen
T7 sequence (Q9H2X6 whole entry): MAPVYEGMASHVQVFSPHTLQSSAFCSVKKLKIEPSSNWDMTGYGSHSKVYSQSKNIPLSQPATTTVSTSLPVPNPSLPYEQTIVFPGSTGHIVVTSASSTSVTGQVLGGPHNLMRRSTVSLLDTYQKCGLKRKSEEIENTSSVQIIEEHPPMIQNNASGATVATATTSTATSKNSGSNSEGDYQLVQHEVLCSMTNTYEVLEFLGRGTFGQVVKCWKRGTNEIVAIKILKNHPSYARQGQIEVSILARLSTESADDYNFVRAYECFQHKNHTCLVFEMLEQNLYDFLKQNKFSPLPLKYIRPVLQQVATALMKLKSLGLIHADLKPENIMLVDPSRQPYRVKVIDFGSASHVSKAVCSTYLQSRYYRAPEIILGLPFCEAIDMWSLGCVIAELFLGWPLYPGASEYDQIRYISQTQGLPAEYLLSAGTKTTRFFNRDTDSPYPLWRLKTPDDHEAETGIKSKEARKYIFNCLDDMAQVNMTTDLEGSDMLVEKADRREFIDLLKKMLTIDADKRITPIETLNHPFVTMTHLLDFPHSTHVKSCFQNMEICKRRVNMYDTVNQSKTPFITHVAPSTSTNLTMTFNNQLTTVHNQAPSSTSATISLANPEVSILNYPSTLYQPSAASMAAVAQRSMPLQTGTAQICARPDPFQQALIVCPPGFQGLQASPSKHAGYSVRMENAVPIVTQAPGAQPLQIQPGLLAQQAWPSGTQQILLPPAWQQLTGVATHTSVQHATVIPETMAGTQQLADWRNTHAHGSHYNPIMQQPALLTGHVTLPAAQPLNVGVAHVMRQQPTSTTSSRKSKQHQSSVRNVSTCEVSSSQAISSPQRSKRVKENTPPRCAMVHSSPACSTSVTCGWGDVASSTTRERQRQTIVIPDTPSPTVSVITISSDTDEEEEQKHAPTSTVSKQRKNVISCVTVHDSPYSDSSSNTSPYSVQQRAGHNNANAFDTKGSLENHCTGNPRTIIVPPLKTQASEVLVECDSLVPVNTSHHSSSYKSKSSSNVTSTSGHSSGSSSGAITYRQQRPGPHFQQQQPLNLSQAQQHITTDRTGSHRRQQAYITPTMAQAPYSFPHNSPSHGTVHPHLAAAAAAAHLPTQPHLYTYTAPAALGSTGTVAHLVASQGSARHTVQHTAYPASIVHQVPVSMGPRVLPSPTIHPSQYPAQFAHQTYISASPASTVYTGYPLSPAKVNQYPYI
Experimental: as §1

## COc1ccc(OC(=O)n2c(=O)oc3cc(C(C)=O)ccc32)cc1 [Compound 2]
OGT; 1.5:1 inhibitor:enzyme ratio
  inactivation time course of OGT: fully inactivated OGT
OGT; OGT 5 μM, compound 20 μM, UDP-GlcNAc 40 μM, 2-20 min
  OGT inactivation in the presence of UDP-GlcNAc in the preincubation mixture: UDP-GlcNAc reduced the rate of inactivation
OGT; near 1:1 ratio
  time to full inactivation of OGT: ≤ 5 min
NEK6
  % Inhibition Point 1: −490%
  % Inhibition Point 2: −457%
  % Inhibition mean: −474%
GRK4
  % Inhibition Point 1: 77%
  % Inhibition Point 2: 76%
  % Inhibition mean: 76%
PHKG2
  % Inhibition Point 1: −360%
  % Inhibition Point 2: −308%
  % Inhibition mean: −334%
PRKX
  % Inhibition Point 1: −135%
  % Inhibition Point 2: −134%
  % Inhibition mean: −135%
SRPK2
  % Inhibition Point 1: −155%
  % Inhibition Point 2: −160%
  % Inhibition mean: −158%
HIPK2
  % Inhibition Point 1: −96%
  % Inhibition Point 2: −90%
  % Inhibition mean: −93%
